In patent US10793543B2, “Selective C-KIT kinase inhibitor” (PRECEDO PHARMACEUTICALS CO., LTD, priority 2016, dated 2020):

Key:
[1] = tested on: MEG-01 cells (P210 Bcr-Abl); assay: Cancer cell proliferation, CCK-8, MEG-01; assay type: cell-based; conditions: Homo sapiens; MEG-01, P210 Bcr-Abl, 72 hours, CCK-8; read-out: GI50
Text: (§1) In the present example, the following cells were used: chronic myelogenous leukemia cells K562 (expressing P210 Bcr-Abl mutant gene), human megakaryocytic leukemia cells MEG-01 (expressing P210 Bcr-Abl mutant gene), human peripheral blood basophilic leukemia cells Ku812 (expressing Bcr-Abl mutant gene) (all above cells purchased from ATCC, USA), human gastrointestinal stromal tumor cell lines GIST-T1 cells (expressing wild-type C-KIT gene) (purchased from Cosmo Bio Co., Ltd., Japan), human gastrointestinal stromal tumor cell lines GIST-882 cells (expressing wild-type C-KIT gene) (presented by the Professor Gray Lab, Dana-Farber Cancer Institute, Harvard University, USA), mouse pro-B cells BaF3 (purchased from ATCC, USA).
(§2) The cells were incubated for 72 hours, and then the number of viable cells was quantified with a microplate reader by using CCK-8 Cell Viability Assay Kit (purchased from Bestbio Company, Shanghai, China) (CCK-8 can be reduced by dehydrogenase in living cells to a highly water-soluble yellow formazan product, and the amount of formazan produced is proportional to the number of living cells).

[2] = tested on: Tel-cKit/V559D-BaF3 cells (KIT V559D); assay: Cell proliferation, CCK-8, Tel-cKit/V559D-BaF3; assay type: cell-based; conditions: Mus musculus, 72 hours
Text: (§3) In addition, in the present example, further uses: mouse P210/BaF3 (stably expressing P210 Bcr-Abl mutant gene), mouse Tel-ABL-BaF3 (stably expressing wild-type ABL kinase), mouse Tel-cKit-BaF3 (stably expressing C-KITwild-type kinase), mouse Tel-cKit/V559D-BaF3 (stably expressing C-KIT V559D mutant kinase), mouse Tel-cKit/V559D/V654A-BaF3 (stably expressing C-KIT V559D/V654A mutant kinase), mouse Tel-cKit/N822K-BaF3 (stably expressing C-KIT N822K mutant kinase), mouse Tel-cKit/V654A-BaF3 (stably expressing C-KIT V654A mutant kinase), mouse Tel-cKit/L567P-BaF3 (stably expressing C-KIT L567P mutant kinase), mouse Tel-cKit/T670I-BaF3 (stably expressing C-KIT T670I mutant kinase), mouse Tel-PDGFRα-BaF3 (stably expressing PDGFRα kinase), mouse Tel-PDGFRβ-BaF3 (stably expressing PDGFRβ kinase), mouse Tel-VEGFR2-BaF3 (stably expressing VEGFR2 kinase), mouse Tel-RET-BaF3 (stably expressing RET kinase). The above cell lines were all constructed by our laboratory according to the following method: the kinase region sequences of human P210 Bcr-Abl, ABL, C-KIT, C-KIT V559D, C-KIT V559D/V654A, C-KIT N822K, C-KIT V654A, C-KIT L567P, C-KIT T670I, PDGFRα, PDGFRβ, VEGFR2, RET were amplified respectively by PCR, inserted respectively into MSCV-Puro vectors harboring N-terminal TEL fragment and/or NPM fragment and/or TPR fragment (Clontech), then the vectors were stably transfected into mouse BaF3 cells by retrovirus methods and growth factor IL-3 was removed, eventually obtaining cell lines that are transferred protein (P210 Bcr-Abl, ABL, C-KIT, C-KIT V559D, C-KIT V559D/V654A, C-KIT N822K, C-KIT V654A, C-KIT L567P, C-KIT T670I, PDGFRα, PDGFRβ, VEGFR2, RET)-dependent.
as §2

[3] = tested on: cells expressing wild-type ABL and mutant Bcr-Abl kinase; assay: Cell proliferation, text summary for ABL/Bcr-Abl cells; assay type: cell-based; conditions: summary of Table 2
Text: as §1, with “USA). […]” for “USA).”
as §2

GIST-882 cells [4] = assay: Cell cycle distribution by flow cytometry, GIST-882; assay type: cell-based, human; conditions: GIST-882, treated 48 hours
GIST-882 cells [5] = assay: Cancer cell proliferation, CCK-8, GIST-882; assay type: cell-based; conditions: Homo sapiens, GIST882, GIST-882, KIT WT, 72 hours
Text: as §1, §2

[6] = tested on: Tel-cKit/V559D/V654A-BaF3 cells (KIT V559D/V654A); assay: Cell proliferation, CCK-8, Tel-cKit/V559D/V654A-BaF3; assay type: cell-based; conditions: Mus musculus, 72 hours
Text: as §3, §2

[7] = tested on: Tel-ABL-BaF3 cells (ABL WT); assay: Cell proliferation, CCK-8, Tel-ABL-BaF3; assay type: cell-based; conditions: Mus musculus; Tel-ABL-BaF3, ABL WT, 72 hours, CCK-8; read-out: GI50
Text: In addition, in the present example, further uses: mouse P210/BaF3 (stably expressing P210 Bcr-Abl mutant gene), mouse Tel-ABL-BaF3 (stably expressing wild-type ABL kinase), mouse Tel-cKit-BaF3 (stably expressing C-KITwild-type kinase), mouse Tel-cKit/V559D-BaF3 (stably expressing C-KIT V559D mutant kinase), mouse Tel-cKit/V559D/V654A-BaF3 (stably expressing C-KIT V559D/V654A mutant kinase), mouse Tel-cKit/N822K-BaF3 (stably expressing C-KIT N822K mutant kinase), mouse Tel-cKit/V654A-BaF3 (stably expressing C-KIT V654A mutant kinase), mouse Tel-cKit/L567P-BaF3 (stably expressing C-KIT L567P mutant kinase), mouse Tel-cKit/T670I-BaF3 (stably expressing C-KIT T670I mutant kinase), mouse Tel-PDGFRα-BaF3 (stably expressing PDGFRα kinase), mouse Tel-PDGFRβ-BaF3 (stably expressing PDGFRβ kinase), mouse Tel-VEGFR2-BaF3 (stably expressing VEGFR2 kinase), mouse Tel-RET-BaF3 (stably expressing RET kinase). […]
as §2

protein kinase C-KIT = target: T1, protein kinase C-KIT (Homo sapiens, UniProt P10721); assay: In vitro enzyme activity assay (ADP-Glo); assay type: biochemical; conditions: purified C-KIT kinase domain, ATP 10 μM
T1 construct: The kinase domain of protein kinase C-KIT was cloned into the insect expression vector pFASTHTA; His tag; made in house; host or cells: SF9 insect cells (Bac-to-Bac baculovirus system)
T1 sequence (P10721 589-937 limits assumed): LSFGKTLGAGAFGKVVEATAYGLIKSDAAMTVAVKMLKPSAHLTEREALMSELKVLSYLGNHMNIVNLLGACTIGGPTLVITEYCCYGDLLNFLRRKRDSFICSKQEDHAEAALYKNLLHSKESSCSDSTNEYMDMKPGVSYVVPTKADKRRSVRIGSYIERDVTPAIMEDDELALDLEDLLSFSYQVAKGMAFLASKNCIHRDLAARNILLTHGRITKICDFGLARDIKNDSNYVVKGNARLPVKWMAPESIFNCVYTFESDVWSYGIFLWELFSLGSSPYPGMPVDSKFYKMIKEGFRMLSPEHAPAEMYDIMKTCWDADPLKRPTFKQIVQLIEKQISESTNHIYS
Protocol: The IC50 value of Compound 4 against protein kinase C-KIT was determined in an in vitro enzyme activity assay. The kinase domain of protein kinase C-KIT was cloned into the insect expression vector pFASTHTA (purchased from Invitrogen life technologies), and the protein with His tag was expressed using the insect expression system Bac-to-Bac Baculovirus Expression System (purchased from Invitrogen life technologies). The constructed vector was transfected into SF9 packaging virus (purchased from Invitrogen life technologies), and the virus was used to infect SF9 to express the protein. Purification was performed using affinity chromatography.
9 μL (6 ng/μL) of purified C-KIT protein kinase was reacted with 1 μL of the above Compound 4 with 3× gradient dilution (the final concentrations of the drug were 10 μM, 3 μM, 1 μM, 0.3 μM, 0.1 μM, 0.03 μM, 0.01 μM, 0.003 μM) at room temperature for 4 hours;
2 μL of ATP and 3 μL of substrate, Poly(4:1 Glu, Tyr)Peptide (Promega, US), were added (final concentrations were 10 μM and 0.2 μg/μL, respectively), and reacted at 37° C. for 1 hour; […]
10 μL of kinase detection reagent was added to transfer ADP into ATP, and the newly synthesized ATP was detected by using coupled luciferase/fluorescein reaction, then the IC50 values were calculated by using a plotting method based on the Envision reading.

[8] = tested on: Tel-RET-BaF3 cells (RET WT); assay: Cell proliferation, CCK-8, Tel-RET-BaF3; assay type: cell-based; conditions: Mus musculus, 72 hours
Text: as §3, §2

[9] = tested on: K562 cells (P210 Bcr-Abl); assay: Cancer cell proliferation, CCK-8, K562; assay type: cell-based; conditions: Homo sapiens; K562, P210 Bcr-Abl, 72 hours, CCK-8; read-out: GI50
Text: as §1, §2

SMILES: Cc1ccc(NC(=O)c2cccc(C(F)(F)F)c2)cc1OC1CCN(C(=O)c2ccncc2)CC1 [Compound 4]
- GI50 [1]: 7.43 µM
- GI50 [2]: 0.04 µM
- GI50 [3]: > 5 µM
- effect on cell cycle (GIST-882 cells [4]): significantly blocked in the GO-G1 phase
- GI50 (GIST-882 cells [5]): 0.043 µM
- GI50 [6]: 1.05 µM
- GI50 [7]: 5.06 µM
- IC50 (protein kinase C-KIT): 0.099 µM
- GI50 [8]: 0.59 µM
- GI50 [9]: > 10 µM
